According to article PMC3913711, “A Novel Angiotensin I-Converting Enzyme Mutation (S333W) Impairs N-Domain Enzymatic Cleavage of the Anti-Fibrotic Peptide, AcSDKP” (PLoS ONE, 2014):
Residues, ends and D or L forms follow the SMILES beside them. *: point of attachment. Bz = O=C(c1ccccc1)*

Experiments:
[1] = target: T1, Angiotensin I-converting enzyme (ACE, CD143) (Homo sapiens, UniProt P12821); test: fluorimetric hydrolysis assay (His-Leu product), […] substrate; type: cell-based
T1 construct: full-length somatic ACE, CHO cell lysate
T1 sequence (P12821 30-1306): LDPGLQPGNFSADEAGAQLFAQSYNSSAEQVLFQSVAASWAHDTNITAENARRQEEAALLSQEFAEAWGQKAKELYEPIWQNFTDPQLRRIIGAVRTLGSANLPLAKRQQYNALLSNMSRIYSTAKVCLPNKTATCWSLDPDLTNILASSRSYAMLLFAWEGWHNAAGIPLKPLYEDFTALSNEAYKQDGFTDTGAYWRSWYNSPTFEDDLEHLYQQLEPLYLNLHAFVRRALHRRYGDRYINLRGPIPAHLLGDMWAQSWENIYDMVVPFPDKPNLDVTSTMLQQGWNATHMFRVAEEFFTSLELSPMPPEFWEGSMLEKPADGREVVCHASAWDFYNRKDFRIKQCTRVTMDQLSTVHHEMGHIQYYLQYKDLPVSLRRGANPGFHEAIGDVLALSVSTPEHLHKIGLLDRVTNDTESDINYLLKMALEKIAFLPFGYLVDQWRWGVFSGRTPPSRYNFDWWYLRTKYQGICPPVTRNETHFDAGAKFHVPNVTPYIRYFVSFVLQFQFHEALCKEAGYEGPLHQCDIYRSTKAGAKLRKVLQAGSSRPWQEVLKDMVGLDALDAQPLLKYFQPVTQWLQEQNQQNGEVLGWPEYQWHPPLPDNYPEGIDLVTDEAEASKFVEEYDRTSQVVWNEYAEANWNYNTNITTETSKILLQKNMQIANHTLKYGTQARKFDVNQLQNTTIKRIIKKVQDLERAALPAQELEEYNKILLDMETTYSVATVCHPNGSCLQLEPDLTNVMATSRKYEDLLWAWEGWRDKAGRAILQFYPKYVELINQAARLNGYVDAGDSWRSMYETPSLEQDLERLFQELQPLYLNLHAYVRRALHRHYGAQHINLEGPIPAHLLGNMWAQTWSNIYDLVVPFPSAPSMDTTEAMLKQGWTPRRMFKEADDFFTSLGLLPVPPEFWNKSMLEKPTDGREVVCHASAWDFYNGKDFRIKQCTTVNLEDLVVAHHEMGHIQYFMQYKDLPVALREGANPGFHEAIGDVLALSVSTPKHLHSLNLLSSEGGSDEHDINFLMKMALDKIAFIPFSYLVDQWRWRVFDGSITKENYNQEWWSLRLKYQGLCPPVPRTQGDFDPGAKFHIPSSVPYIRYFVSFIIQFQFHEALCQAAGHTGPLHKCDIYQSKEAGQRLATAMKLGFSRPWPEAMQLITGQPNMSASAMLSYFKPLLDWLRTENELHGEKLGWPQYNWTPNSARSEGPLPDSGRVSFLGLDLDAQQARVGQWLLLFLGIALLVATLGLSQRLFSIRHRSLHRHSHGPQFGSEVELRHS

[2] = target: T2, Angiotensin I-converting enzyme (ACE, CD143) (Homo sapiens, UniProt P12821, S362W); test: as above; type: cell-based
T2 construct: full-length somatic ACE, CHO cell lysate
T2 sequence (P12821 30-1306 S362W): as the sequence (P12821 30-1306) above, with S333W counted along it

CC(C)C[C@H](NC(=O)[C@H](Cc1cnc[nH]1)NC(=O)CNC(=O)c1ccccc1)C(=O)O [Hip-His-Leu] (Bz-Gly-His-Leu-OH)
fluorimetric hydrolysis assay (His-Leu product), 5 mM substrate [1]: stably expressing WT and mutant ACE was determined with substrates Hip-His-Leu and Z-Phe-His –Leu | fluorimetric hydrolysis assay (His-Leu product), 5 mM substrate [2]: stably expressing WT and mutant ACE was determined with substrates Hip-His-Leu and Z-Phe-His –Leu
